Consider eleven molecules from patent US10155798B2, “Anti-obesity compounds derived from neuromedin U” (The Regents of the University of California, priority 2013, dated 2018).

Data set [1] deals with T1, NMUR2 (neuromedin U 2 receptor) (Homo sapiens, UniProt Q9GZQ4).
T1 construct: expressed in transfected cells; host or cells: HEK293 (HEK-NMU2)
Briefly: Calcium mobilization assay, HEK-NMU2 cells. In kind it is cell-based. As to conditions: HEK293 cells expressing NMU2 receptor, NA = not active. The method, then:
To test whether neuromedin U can be modified/derivatized to yield truncated bioactive compound(s) that may be useful as therapeutics, we synthesized a small library (25 peptides) of hNMU analogs utilizing various stabilization protocols, including: cyclization, lipidation, introduction of α,α-disubstituted and N-methylated amino acids, retro-inverso-approach, and combination of such (see Table 1). Subsequently all analogues were tested against human neuromedin U receptors (NMUR1 and NMUR2) in calcium mobilization assay (collaboration with Dr Gary Willars, University of Leicester, UK).
HEK293 cells expressing either the neuromedin U 1 receptor or neuromedin U 2 receptor (HEK-NMU1 and HEK-NMU2 respectively) were grown to approximately 90% confluence in ELISA strip plates (96-well format) pre-coated with poly-D-lysine (0.1% w/v) and loaded for 45 min at 37° C. with 2 iM fluo-4-AM in Krebs'-HEPES buffer with bovine serum albumin (KHB-BSA; composition: 10 mM HEPES; 4.2 mM NaHCO3; 11.7 mM D-glucose; 1.18 mM MgSO4.7H2O; 1.18 mM KH2PO4; 4.69 mM KCl; 118 mM NaCl; 1.3 mM CaCl2.2H2O; 0.1% (w/v) BSA; pH 7.4). Monolayers were then washed and equilibrated for 5 min at 37° C. in 100 il KHB-BSA for subsequent recording of fluorescence as an index of intracellular [Ca^2+] ([Ca^2+]i) using a microplate reader (NOVOstar; BMG LABTECH, Aylesbury, U.K.). Briefly, 20 μl of KHB-BSA, with or without ligand, was added into the well (200 μl/s) and fluorescence determined at 0.5 s intervals by excitation at 485 nm and collection of emitted light at 520 nm. Changes in fluorescence above basal levels (before ligand addition) were determined. […] Fmax was obtained by removal of buffer and addition of KHB-BSA buffer containing 4 mM [Ca^2+] and ionomycin (2 μM) to representative wells and the fluorescence measured for 10 min. Fmin was then derived by replacing buffer with Ca^2+-free KHB-BSA buffer containing 2 mM EGTA and fluorescence measured for 10 min. For the determination of concentration-response relationships, the maximal change in [Ca^2+]i was calculated following ligand addition. Concentration-response curves were then fitted using a four-parameter logistic equation to determine EC50 values (GraphPad Software Inc., Calif.).
On the technique in general: Calcium assays in cells follow changes in intracellular calcium, usually with a dye or a luminescent sensor.

Data set [2] concerns diet induced obese (DIO) mouse model. Briefly: Single dose in vivo anorectic experiments in DIO mouse model. Particulars: DIO mice; for anorectic activity, single dose: single dose 5344 nMole/kg, FIG. 3A. From the text: FIG. 3. Single dose in vivo experiments performed in DIO mouse model. (A) Comparison of anorectic effects of NM4 and NM7. (B) NM4 dose response experiments. (C) Comparison of NM4 and NM4A anorectic activity.
Initially we focused on single dose experiments comparing NM4 and NM7 at 5344 nMole/kg dose (FIG. 3).

For data set [3] the following is noted: cited from earlier work.

Where a SMILES comes first, the peptide text is derived from it. [ ]: non-standard residue; d: D form. The star is where a group is joined. PEG12 = NCCOCCOCCOCCOCCOCCOCCOCCOCCOCCOCCOCCOCCC(=O)O; Oic = O=C(O)[C@@H]1C[C@@H]2CCCC[C@@H]2N1; Palmitoyl = CCCCCCCCCCCCCCCC(=O)*; Aib = CC(C)(N)C(=O)O; Ahx = NCCCCCC(=O)O

T1 sequence (Q9GZQ4 whole entry): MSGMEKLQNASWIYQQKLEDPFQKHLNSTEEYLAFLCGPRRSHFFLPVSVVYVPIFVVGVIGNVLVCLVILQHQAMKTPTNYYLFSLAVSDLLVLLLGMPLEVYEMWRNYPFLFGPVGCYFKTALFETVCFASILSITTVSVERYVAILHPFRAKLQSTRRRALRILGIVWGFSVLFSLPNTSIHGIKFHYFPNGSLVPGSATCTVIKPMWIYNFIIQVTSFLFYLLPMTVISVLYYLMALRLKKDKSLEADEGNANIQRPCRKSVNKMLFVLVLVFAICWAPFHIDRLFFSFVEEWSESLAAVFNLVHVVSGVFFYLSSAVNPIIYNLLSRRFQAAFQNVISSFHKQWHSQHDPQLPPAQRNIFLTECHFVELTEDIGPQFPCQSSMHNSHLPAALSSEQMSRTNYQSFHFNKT

One may read the EC50 as the concentration that produces a half-maximal response. Turning to `CC(C)C[C@H](NC(=O)[C@H](Cc1ccccc1)NC(=O)CCCCCNC(=O)[C@@H](N)CS)C(=O)N[C@@H](Cc1ccccc1)C(=O)N[C@@H](CCCNC(=N)N)C(=O)N1[C@H](C(=O)N[C@@H](CCCNC(=N)N)C(=O)N[C@@H](CC(N)=O)C(=O)NCCCCCC(=O)N[C@@H](CS)C(N)=O)C[C@@H]2CCCC[C@@H]21` [NM9, C-Ahx-FL-Phe-Arg-Oic-R-Asn-Ahx-C] (H-C[Ahx]FLFR[Oic]RN[Ahx]C-NH2), the EC50 in data set [1] amounted to 708 ± 171 nM.

With `CC(=O)N[C@@H](Cc1ccccc1)C(=O)N[C@@H](CC(C)C)C(=O)N[C@@H](Cc1ccccc1)C(=O)N[C@@H](CCCNC(=N)N)C(=O)N1CCC[C@H]1C(=O)N[C@@H](CCCNC(=N)N)C(=O)N[C@@H](CC(N)=O)C(N)=O` [Peptide M1, Ac-FL-Phe-Arg-Pro-R-Asn] (Ac-FLFRPRN-NH2), the EC50 in data set [1] was found to be 0.6 ± 0.19 nM.

Regarding `CC(C)C[C@H](NC(=O)[C@H](Cc1ccccc1)NC(=O)C(C)(C)N)C(=O)N[C@@H](Cc1ccccc1)C(=O)N[C@@H](CCCNC(=N)N)C(=O)N1CCC[C@H]1C(=O)N[C@@H](CCCNC(=N)N)C(=O)N[C@@H](CC(N)=O)C(N)=O` [Peptide M2, Aib-FL-Phe-Arg-Pro-R-Asn] (H-[Aib]FLFRPRN-NH2), the EC50 in data set [1] was determined as 0.21 ± 0.07 nM.

Turning to `CCCCCCCCCCCCCCCC(=O)NC(C)(C)C(=O)N[C@@H](Cc1ccccc1)C(=O)N[C@@H](CC(C)C)C(=O)N[C@@H](Cc1ccccc1)C(=O)N[C@@H](CCCNC(=N)N)C(=O)N1CCC[C@H]1C(=O)N[C@@H](CCCNC(=N)N)C(=O)N[C@@H](CC(N)=O)C(N)=O` [Peptide M3, Pal-Aib-FL-Phe-Arg-Pro-R-Asn] (Palmitoyl-[Aib]FLFRPRN-NH2), in data set [1], the EC50 worked out at 170 ± 34.9 nM.

For the molecule `CCCCCCCCCCCCCCCC(=O)NCCOCCOCCOCCOCCOCCOCCOCCOCCOCCOCCOCCOCCC(=O)NC(C)(C)C(=O)N[C@@H](Cc1ccccc1)C(=O)N[C@@H](CC(C)C)C(=O)N[C@@H](Cc1ccccc1)C(=O)N[C@@H](CCCNC(=N)N)C(=O)N1CCC[C@H]1C(=O)N[C@@H](CCCNC(=N)N)C(=O)N[C@@H](CC(N)=O)C(N)=O` [Peptide M4, Pal-dPEG12-Aib-FL-Phe-Arg-Pro-R-Asn] ({Palmitoyl-PEG12}-[Aib]FLFRPRN-NH2), the “anorectic activity, single dose” value in data set [2] was “significant anorectic activity”. For the same molecule, the “dose dependence of anorectic effects” value in data set [2] (single dose, FIG. 3B) is recorded as “dose-dependent”. In addition, in data set [1], the EC50 is 1.7 ± 0.29 nM.

Regarding `CC(C)C[C@H](NC(=O)[C@H](Cc1ccccc1)NC(=O)C(C)(C)N)C(=O)N[C@@H](Cc1ccccc1)C(=O)N[C@@H](CCCNC(=N)N)C(=O)N1CCC[C@H]1C(=O)N[C@@H](CCCNC(=N)N)C(=O)N[C@@H](CC(N)=O)C(=O)NC(C)(C)C(N)=O` [Peptide M5, Aib-FL-Phe-Arg-Pro-R-Asn-Aib] (H-[Aib]FLFRPRN[Aib]-NH2), the EC50 in data set [1] stood at 50.1 ± 16.2 nM.

On to `CCCCCCCCCCCCCCCC(=O)NCCOCCOCCOCCOCCOCCOCCOCCOCCOCCOCCOCCOCCC(=O)NC(C)(C)C(=O)N[C@@H](Cc1ccccc1)C(=O)N[C@@H](CC(C)C)C(=O)N[C@@H](Cc1ccccc1)C(=O)N[C@@H](CCCNC(=N)N)C(=O)N1CCC[C@H]1C(=O)N[C@@H](CCCNC(=N)N)C(=O)N[C@@H](CC(N)=O)C(=O)NC(C)(C)C(N)=O` [Peptide M7, Pal-dPEG12-Aib-FL-Phe-Arg-Pro-R-Asn-Aib] ({Palmitoyl-PEG12}-[Aib]FLFRPRN[Aib]-NH2; N-terminus and C-terminus assumed), for which the “anorectic activity, single dose” value in data set [2] is listed as “very limited activity in vivo”.

For `CC(C)C[C@H](NC(=O)[C@H](Cc1ccccc1)NC(=O)CCCCCNC(=O)[C@@H](N)CS)C(=O)N[C@@H](Cc1ccccc1)C(=O)N[C@@H](CCCNC(=N)N)C(=O)N1CCC[C@H]1C(=O)N[C@@H](CCCNC(=N)N)C(=O)N[C@@H](CC(N)=O)C(=O)NCCCCCC(=O)N[C@@H](CS)C(N)=O` [Peptide M8, C-Ahx-FL-Phe-Arg-Pro-R-Asn-Ahx-C] (H-C[Ahx]FLFRPRN[Ahx]C-NH2), the EC50 in data set [1] is 240 ± 35.7 nM.

In the case of `CC(C)C[C@H](NC(=O)[C@H](Cc1ccccc1)NC(=O)[C@H](Cc1ccc(O)cc1)NC(=O)CNC(=O)[C@H](CCCNC(=N)N)NC(=O)[C@H](CO)NC(=O)[C@H](CCC(N)=O)NC(=O)[C@H](CO)NC(=O)[C@H](C)NC(=O)[C@H](Cc1ccccc1)NC(=O)[C@@H]1CCCN1C(=O)[C@H](CO)NC(=O)[C@H](CCC(N)=O)NC(=O)[C@H](Cc1ccccc1)NC(=O)[C@H](CCC(=O)O)NC(=O)[C@H](CCC(=O)O)NC(=O)[C@H](CC(=O)O)NC(=O)[C@@H](NC(=O)[C@H](CCCNC(=N)N)NC(=O)[C@@H](N)Cc1ccccc1)C(C)C)C(=O)N[C@@H](Cc1ccccc1)C(=O)N[C@@H](CCCNC(=N)N)C(=O)N1CCC[C@H]1C(=O)N[C@@H](CCCNC(=N)N)C(=O)N[C@@H](CC(N)=O)C(N)=O` [hNMU, FRVDEEFQSPFASQSRGY-FL-Phe-Arg-Pro-R-Asn, reference compound] (H-FRVDEEFQSPFASQSRGYFLFRPRN-NH2), in data set [1], the EC50 came out at 0.49 ± 0.13 nM.

Regarding “Neuromedin U (FRVDEEFQSPFASQSRGYFLFRPRN) [NMU]”, the “half-life after subcutaneous (sc) injection” value in data set [3] (subcutaneous injection) is on record as “less than 5 min”.

Regarding semaglutide, the plasma half-life in data set [3] (in vivo) is 160 h.
